From PubChem BioAssay (NCI)
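Grown in 96-well plates, cells were treated for 48 hours with each compound at five concentrations. Insufficient inhibition: endpoint recorded as highest concentration tested. GI50 marks 50% less growth. Definition used: TGI = concentration required for complete inhibition of growth.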

Key:
Assay in all cases: NCI-60 cell line screen, 48 h
[1] = tested on: SW-620 colon
[2] = tested on: SR leukemia
[3] = tested on: NCI-H460 lung
[4] = tested on: OVCAR-8 ovarian
[5] = tested on: HT29 colon
[6] = tested on: MDA-MB-231 breast
[7] = tested on: MALME-3M melanoma
[8] = tested on: HCT-15 colon
[9] = tested on: ACHN renal
[10] = tested on: TK-10 renal

`CCOC(=O)c1c(N2CCCC2)ncn(Cc2ccccc2)c1=S` was tested, and the TGI [1] was > 100 µM, the TGI [2] was > 100 µM and the TGI [3] was > 100 µM. The TGI [4] was > 100 µM, the TGI [5] was > 100 µM and the TGI [6] was > 100 µM. For the same compound, the TGI [7] was > 100 µM, the TGI [8] was > 100 µM and the TGI [9] was > 100 µM. For the same compound, the TGI [10] was > 100 µM.

`CCCC(=O)NC(Nc1ccc(S(=O)(=O)Nc2nc(C)cc(C)n2)cc1)(C(F)(F)F)C(F)(F)F` was tested, and the TGI [1] was > 100 µM, the TGI [2] was > 100 µM and the TGI [3] was > 100 µM. For the same compound, the TGI [4] was > 100 µM, the TGI [5] was > 100 µM and the TGI [6] was > 100 µM. For the same compound, the TGI [7] was > 100 µM, the TGI [8] was > 100 µM and the TGI [9] was > 100 µM. The TGI [10] was > 100 µM.

For `OC(CCNCc1ccccc1)c1ccc2ccccc2c1` (stereo not given), the TGI [1] was 43.1 µM, the TGI [2] was 98.3 µM and the TGI [3] was 35.1 µM. For the same compound, the TGI [4] was 45.9 µM, the TGI [5] was 61.7 µM and the TGI [6] was 35.3 µM. It also gave a TGI [7] of 38.7 µM, a TGI [8] of 38.8 µM and a TGI [9] of 41.5 µM. The TGI [10] was 33.6 µM.

For `CCOC(=O)c1cc2c3c(c(C(C)=O)c(O)c2[nH]1)N(CC(C)CC)CC3` (stereo not given), the TGI [1] was > 100 µM, the TGI [2] was > 100 µM and the TGI [3] was > 100 µM. For the same compound, the TGI [4] was > 100 µM, the TGI [5] was > 100 µM and the TGI [6] was > 100 µM. The TGI [7] was 81.4 µM, the TGI [8] was > 100 µM and the TGI [9] was > 100 µM. For the same compound, the TGI [10] was > 100 µM.

With `CCOP(=O)(OCC)C1CC(n2cc(C)c(=O)[nH]c2=O)OC1CO` (stereo not given) the TGI [1] was > 100 µM, the TGI [2] was > 100 µM and the TGI [3] was > 100 µM. The TGI [4] was > 100 µM, the TGI [5] was > 100 µM and the TGI [6] was > 100 µM. For the same compound, the TGI [7] was > 100 µM, the TGI [8] was > 100 µM and the TGI [9] was > 100 µM. The TGI [10] was > 100 µM.

For `CCCCCCCCCCCCCCCCCCNc1ccn(C2OC(COP(=O)(O)OCC3OC(n4cc(F)c(NCCCCCCCCCCCCCCCCCC)nc4=O)CC3O)C(O)C2O)c(=O)n1` (stereo not given), the TGI [1] was > 100 µM, the TGI [2] was > 100 µM and the TGI [3] was > 100 µM. The TGI [4] was > 100 µM, the TGI [5] was > 100 µM and the TGI [6] was > 100 µM. For the same compound, the TGI [7] was > 100 µM, the TGI [8] was > 100 µM and the TGI [9] was > 100 µM. The TGI [10] was > 100 µM.

For `COc1cc(/C=C2/C[C@H]3[C@@H]4CC=C5C[C@@H](OC(C)=O)CC[C@]5(C)[C@H]4CC[C@]3(C)NC2=O)cc(OC)c1OC`, the TGI [1] was > 100 µM, the TGI [2] was > 100 µM and the TGI [3] was > 100 µM. For the same compound, the TGI [4] was > 100 µM, the TGI [5] was > 100 µM and the TGI [6] was 62.5 µM. The TGI [7] was 60.3 µM, the TGI [8] was > 100 µM and the TGI [9] was 44.6 µM. For the same compound, the TGI [10] was 83.3 µM.

In the case of `CCCCCC(C)SC1(C(=O)OC)CC(OC(C)=O)C(NC(C)=O)C([C@H](OC(C)=O)[C@@H](COC(C)=O)OC(C)=O)O1` (stereo not given in full), the TGI [1] is reported as > 100 µM, the TGI [2] is reported as > 100 µM and the TGI [3] is reported as > 100 µM. The TGI [4] was > 100 µM, the TGI [5] was > 100 µM and the TGI [6] was > 100 µM. The TGI [7] was > 100 µM, the TGI [8] was > 100 µM and the TGI [9] was > 100 µM. The TGI [10] was > 100 µM.

With `CCN(C(=S)N[C@H](C(=O)N[C@@H](C)C(=O)OC)C(C)C)c1ccccc1` the TGI [1] was > 100 µM, the TGI [2] was 52.7 µM and the TGI [3] was > 100 µM. For the same compound, the TGI [4] was > 100 µM, the TGI [5] was > 100 µM and the TGI [6] was > 100 µM. For the same compound, the TGI [7] was 98.2 µM, the TGI [8] was > 100 µM and the TGI [9] was > 100 µM. The TGI [10] was > 100 µM.

In the case of `C#CCSC(C=C=C)P(=O)(OC(C)C)OC(C)C` (stereo not given), the TGI [1] is reported as > 100 µM, the TGI [2] is reported as > 100 µM and the TGI [3] is reported as > 100 µM. The TGI [4] was > 100 µM, the TGI [5] was 94.5 µM and the TGI [6] was > 100 µM. For the same compound, the TGI [7] was > 100 µM, the TGI [8] was > 100 µM and the TGI [9] was > 100 µM. For the same compound, the TGI [10] was > 100 µM.

`Cc1c2c(n(CCc3ccc(Cl)cc3)c1C)NC(c1ccccc1)C(C#N)S2(=O)=O` (stereo not given) was tested, and the TGI [1] was > 100 µM, the TGI [2] was 38.2 µM and the TGI [3] was > 100 µM. For the same compound, the TGI [4] was > 100 µM, the TGI [5] was > 65.9 µM and the TGI [6] was > 59.3 µM. For the same compound, the TGI [7] was > 80.2 µM, the TGI [8] was > 100 µM and the TGI [9] was > 100 µM. The TGI [10] was > 100 µM.

Compound `CC(=O)c1c(C(F)(F)F)n([O-])c2cc(Cl)c(Cl)cc2[n+]1=O` has a TGI [1] of 1.34 µM, a TGI [2] of 0.0361 µM and a TGI [3] of 0.852 µM. It also gave a TGI [4] of 1.84 µM, a TGI [5] of 2.54 µM and a TGI [6] of 2.99 µM. The TGI [7] was 2.47 µM, the TGI [8] was 0.759 µM and the TGI [9] was 1.92 µM. The TGI [10] was 1.09 µM.

In the case of `O=C(Nc1nc2ccccc2s1)c1cc([N+](=O)[O-])ccc1Cl`, the TGI [1] is reported as > 51.4 µM, the TGI [2] is reported as > 100 µM and the TGI [3] is reported as > 59.4 µM. For the same compound, the TGI [4] was > 45.4 µM, the TGI [5] was 65.9 µM and the TGI [6] was > 100 µM. For the same compound, the TGI [7] was > 100 µM, the TGI [8] was > 41.4 µM and the TGI [9] was > 100 µM. The TGI [10] was > 100 µM.

In the case of `C[C@@H]1CC[C@H]2C(C(O)CCCCC(O)C3=C(C(F)(F)F)O[C@@H]4O[C@@]5(C)CC[C@H]6[C@H](C)CC[C@@H]3[C@@]46OO5)=C(C(F)(F)F)O[C@@H]3O[C@@]4(C)CC[C@@H]1[C@]32OO4` (stereo not given in full), the GI50 [1] is reported as 5.64 µM, the TGI [1] is reported as > 100 µM and the GI50 [2] is reported as 1.91 µM. The TGI [2] was 6.04 µM, the GI50 [3] was 15.3 µM and the TGI [3] was > 100 µM. For the same compound, the GI50 [4] was 11.3 µM, the TGI [4] was > 100 µM and the GI50 [5] was 13.6 µM. The TGI [5] was > 100 µM, the GI50 [6] was 16.2 µM and the TGI [6] was > 100 µM. The GI50 [7] was 44.7 µM, the TGI [7] was > 100 µM and the GI50 [8] was 9.79 µM. For the same compound, the TGI [8] was > 100 µM, the GI50 [9] was 13.9 µM and the TGI [9] was > 100 µM. The GI50 [10] was > 100 µM and the TGI [10] was > 100 µM.

In the case of `c1ccc2c(c1)CCc1c-2n(CCN2CCOCC2)c2ccccc12`, the TGI [1] is reported as > 100 µM, the TGI [2] is reported as 38.3 µM and the TGI [3] is reported as 92.9 µM. The TGI [4] was > 100 µM, the TGI [5] was 25.9 µM and the TGI [6] was > 100 µM. The TGI [7] was 32.2 µM, the TGI [8] was > 100 µM and the TGI [9] was > 100 µM. The TGI [10] was > 100 µM.
